# In ChEMBL document CHEMBL1132002, “Interaction of tyrosyl aryl dipeptides with S. aureus tyrosyl tRNA synthetase: inhibition and crystal structure of a complex” (Bioorg Med Chem Lett, 1999):
# Square brackets hold non-standard residues; d marks the D form. Peptide text beside a SMILES is read from it. ξ: configuration not given here. ξHpg = NC(C(=O)O)c1ccc(O)cc1
# Tested on: Tyrosine--tRNA ligase (Staphylococcus aureus)
# Assay: Compound was tested for inhibition of Staphylococcus aureus tyrosyl tRNA Synthetase; NI=No inhibition
smiles,measurement,value
COC(=O)C(NC(=O)[C@@H](N)Cc1ccc(O)cc1)c1ccc(O)cc1 (some centres not stated) (H-Tyr-[ξHpg]-OMe),IC50,No inhibition
N[C@@H](Cc1ccc(O)cc1)C(=O)N[C@@H](C(=O)O)c1ccccc1,IC50,No inhibition
